pIC50: −log10 of the molar value.
What was measured:
[1] = target: His6-TEV-PDGFRβ (557-1016) (Homo sapiens (Human), UniProt P09619); test: PDGFRβ HTRF Assay; assay type: biochemical; conditions: read-out: PDGFR HTRF IC50
Experimental: Instrumentation: a. Compound liquid handling: LabCyte Echo; b. Reagent liquid handling: Thermo Scientific Multidrop Combi; c. BMG PHERAStar multilabel plate reader.
Protein Reagent: His6-TEV-PDGFRβ Protein Prep prepared at Accelagen.
(§1) II. Methods and Procedures
Assay buffer stock solution, contains 50 mM Hepes, 10 mM MgCl2, 1 mM EGTA, and 0.01% Brij-35, 0.01% ovalbumin, 2 mM DTT at pH 7.5, in molecular biology grade water. Store at room temperature.
DTT, 2 M in molecular biology grade water, store at −20° C. in aliquots.
Ovalbumin, 10% or 100 mg/mL, prepare fresh on experimental day.
PDGFRβ, 116 μM (PDGFRb_08 Prep 02), produced at Accelagen. Store at −80° C. in aliquots.
TK-biotin peptide, […] in molecular biology grade water, store at −20° C. in aliquots.
ATP, 100 mM in molecular biology grade water, store at −20° C. in aliquots.
HTRF KinEASE-TK kit: Allow the contents of the Cisbio kit to warm up to room temperature before use. This kit contains HTRF detection buffer, TK-Antibody labeled with Eu^3+-cryptate, TK-substrate biotin and Streptavidin-XL665.
TK Substrate-Biotin, reconstitute 500 μg lyopholized with 574 μL molecular biology grade water to prepare a 500 μM stock; After use, aliquot the rest and store at −20° C.
TK Antibody-Cryptate, reconstitute lyophilized with 1 mL of molecular biology grade water (100× solution) then add 99 mL detection buffer to prepare a ready to use TK-antibody-cryptate solution; the concentration of the TK-antibody-cryptate reagent is not known. After use, aliquot the rest and store at −20° C.
Streptavidin-XL665, reconstitute 3 mg lyophilized with 3 mL molecular biology grade water to prepare a 1 mg/mL or 16.67 μM stock; MW=60 kDa; After use, aliquot the rest and store at −20° C.
Freshly Prepared Solutions:
Assay buffer. Dilute 5× Kinase buffer 5-fold with molecular biology grade water and add DTT to 2 mM and ovalbumin to 0.1 mg/mL (or 0.01%).
2× protein solution. Make a working solution of […] PDGFRβ in assay buffer. Keep on ice until use to maintain enzyme stability.
2× substrate solution. Make a working solution of 1.6 mM ATP and 1 μM TK-substrate biotin peptide in assay buffer.
3× quench/detection solution. Make a working solution of 0.1875 μM SA-XL665 and the TK-antibody cryptate diluted by 12 of total quench/detection volume in assay buffer.
Keep final streptavidin/biotin ratio at 1 to 8.
Example of 3× quench/detection solution preparation: 8 mL total volume.
TK antibody-cryptate in detection buffer—4000 μL
The kinase reaction is stopped by the addition of the detection reagents which contain EDTA (detection step).
Assay in white ProxiPlate 384-well
Step 1. Dispensing inhibitors/DMSO and low control: Using the ECHO 555 acoustic dispenser, spot desired compound serial dilutions in DMSO, NEAT DMSO to represent the uninhibited enzyme control, and 10 μM final [imatinib] to the represent the 100% inhibited enzyme control
Step 2. PDGFRβ E+I pre-incubation: Add 2 μL 2× protein solution to columns 1-24 using the Multidrop Combi. Centrifuge at 1000 rpm for 1 min. Incubate 30 min at RT
Step 2. Enzymatic reaction: Add 2 μL substrate solution to columns 1-24 to initiate the reaction using the Multidrop Combi; cover/seal the assay plate to reduce evaporation. Centrifuge at 1000 rpm for 1 min. Incubate at room temperature for 3 hours.
Step 3. Quench/Detection: Add 2 μl 3× quench/detection solution to columns 1-24 using the Multidrop Combi; cover/seal the plate. Centrifuge 1 min 1000 rpm. Incubate at RT for 60 min. Read the plate in PHERAstar (or similar instrument) on HTRF setting at excitation 337 nm—dual emission—665/620 nm ratio.
(§2) III. Calculations and Formulas
HTRF ratio values calculated by the instrument (Ratio is acceptor counts/donor counts*10,000) is exported from the plate reader and used in data analysis. […] Assay statistics can include Robust Z′ and Signal to Background.
% Inhibition Calculation: Percent inhibition will be calculated for sample wells based on the equation: […]

[2] = target: Tb-labeled inactive PDGFRβ (Homo sapiens (Human), UniProt P09619); test: PDGFRβ LanthaScreen Assay; assay type: binding; conditions: read-out: PDGFR Lantha IC50
Chain of Tb-labeled inactive PDGFRβ (P09619 33-1106): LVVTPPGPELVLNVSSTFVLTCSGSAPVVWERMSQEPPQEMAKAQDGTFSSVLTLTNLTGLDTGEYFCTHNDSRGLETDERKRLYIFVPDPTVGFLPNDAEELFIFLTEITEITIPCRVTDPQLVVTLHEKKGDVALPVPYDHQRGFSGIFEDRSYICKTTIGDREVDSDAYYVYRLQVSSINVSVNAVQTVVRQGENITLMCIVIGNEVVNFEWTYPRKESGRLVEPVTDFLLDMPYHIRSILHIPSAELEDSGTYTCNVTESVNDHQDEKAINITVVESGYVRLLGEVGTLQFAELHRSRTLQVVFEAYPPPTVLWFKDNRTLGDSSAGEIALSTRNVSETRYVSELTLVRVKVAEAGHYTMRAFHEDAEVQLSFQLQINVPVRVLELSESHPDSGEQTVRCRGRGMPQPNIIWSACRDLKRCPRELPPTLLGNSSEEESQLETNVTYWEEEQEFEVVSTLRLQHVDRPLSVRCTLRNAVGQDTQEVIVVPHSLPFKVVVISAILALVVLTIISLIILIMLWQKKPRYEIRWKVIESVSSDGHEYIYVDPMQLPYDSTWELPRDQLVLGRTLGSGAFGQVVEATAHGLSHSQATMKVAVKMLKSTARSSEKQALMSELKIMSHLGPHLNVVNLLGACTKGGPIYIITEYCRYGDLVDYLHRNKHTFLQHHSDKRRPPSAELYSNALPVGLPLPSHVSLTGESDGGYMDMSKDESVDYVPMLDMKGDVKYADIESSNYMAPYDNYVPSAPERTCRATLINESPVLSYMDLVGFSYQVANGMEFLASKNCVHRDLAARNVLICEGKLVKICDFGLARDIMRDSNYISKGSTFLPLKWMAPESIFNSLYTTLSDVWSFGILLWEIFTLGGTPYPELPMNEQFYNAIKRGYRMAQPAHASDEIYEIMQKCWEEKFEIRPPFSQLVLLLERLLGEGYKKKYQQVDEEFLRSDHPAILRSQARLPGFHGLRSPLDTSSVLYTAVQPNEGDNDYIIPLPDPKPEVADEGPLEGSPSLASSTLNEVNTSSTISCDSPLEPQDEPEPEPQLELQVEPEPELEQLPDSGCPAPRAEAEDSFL

[3] = target: VEGFR2, unphosphorylated (Homo sapiens (Human), UniProt P35968); test: VEGFR ADP GLO Assay; assay type: biochemical
Chain of VEGFR2, unphosphorylated (P35968 20-1356): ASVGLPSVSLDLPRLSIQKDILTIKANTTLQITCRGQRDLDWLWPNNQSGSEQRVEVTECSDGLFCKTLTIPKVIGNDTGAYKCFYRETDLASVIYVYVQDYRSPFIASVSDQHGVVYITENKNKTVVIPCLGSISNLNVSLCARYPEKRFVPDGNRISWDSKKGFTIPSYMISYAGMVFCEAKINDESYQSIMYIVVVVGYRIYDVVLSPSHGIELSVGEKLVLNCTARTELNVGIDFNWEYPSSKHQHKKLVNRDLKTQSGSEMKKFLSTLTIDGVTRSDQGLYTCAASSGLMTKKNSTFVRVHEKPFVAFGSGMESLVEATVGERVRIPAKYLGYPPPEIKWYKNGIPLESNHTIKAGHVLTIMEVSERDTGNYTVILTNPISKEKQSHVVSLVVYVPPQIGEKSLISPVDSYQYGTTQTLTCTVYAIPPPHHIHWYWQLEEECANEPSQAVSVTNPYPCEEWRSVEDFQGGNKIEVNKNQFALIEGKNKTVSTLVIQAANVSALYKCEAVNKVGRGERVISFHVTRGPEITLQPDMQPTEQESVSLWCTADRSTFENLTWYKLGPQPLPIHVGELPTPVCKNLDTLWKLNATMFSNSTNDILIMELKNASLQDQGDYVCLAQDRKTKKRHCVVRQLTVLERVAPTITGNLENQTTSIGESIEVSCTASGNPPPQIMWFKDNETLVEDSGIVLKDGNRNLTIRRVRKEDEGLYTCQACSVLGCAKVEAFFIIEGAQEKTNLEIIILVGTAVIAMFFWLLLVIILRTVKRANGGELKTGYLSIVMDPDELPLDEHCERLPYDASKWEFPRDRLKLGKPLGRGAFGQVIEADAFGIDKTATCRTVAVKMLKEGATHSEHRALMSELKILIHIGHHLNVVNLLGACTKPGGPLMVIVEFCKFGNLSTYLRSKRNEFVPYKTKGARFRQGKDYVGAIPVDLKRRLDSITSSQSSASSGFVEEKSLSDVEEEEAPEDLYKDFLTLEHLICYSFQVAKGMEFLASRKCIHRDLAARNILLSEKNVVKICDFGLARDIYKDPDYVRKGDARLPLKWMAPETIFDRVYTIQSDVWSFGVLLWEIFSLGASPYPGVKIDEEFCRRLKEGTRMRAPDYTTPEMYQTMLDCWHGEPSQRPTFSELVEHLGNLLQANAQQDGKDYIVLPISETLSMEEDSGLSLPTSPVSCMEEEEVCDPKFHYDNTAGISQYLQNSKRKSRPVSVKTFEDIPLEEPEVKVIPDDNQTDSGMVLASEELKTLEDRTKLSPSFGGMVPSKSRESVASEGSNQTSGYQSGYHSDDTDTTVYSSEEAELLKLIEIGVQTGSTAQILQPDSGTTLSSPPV
Experimental: as §1
Assay buffer stock contains 50 mM HEPES pH7.5, 10 mM MgCl2, 0.01% Brij-35, and 1 mM EGTA.
Unphosphorylated VEGFR2. […] Store at −80° C. in aliquots.
Sonicate 10 mg/ml Srctide solution for 10 minutes and then vacuum filter.
Freshly Prepared Solutions
2× kinase solution. Make a working solution of 10 nM unphosphorylated VEGFR2 in Assay buffer. Vacuum filter 2× kinase solution prior to running assay. Keep on ice until use.
2× substrate/ATP solution. Make a working solution of 2 mg/mL srctide and 2.4 mM ATP in Assay buffer. Keep on ice until use.
Step 1. Dispensing inhibitors/controls: Using Echo, dispense 10 nL/well compound serial dilutions in DMSO to columns 1-22 (in 384-well plates) or columns 1-44 (in 1536-well plates). Dilution series=11 pt, 3-fold dilutions. The top compound concentration in the source plate is 4 mM. The top compound concentration in the assay plate is 10 uM. Using Echo, dispense 10 nl/well DMSO to column 23 (in 384-well plates) or columns 45-47 (in 1536-well plates). […] These wells will serve as positive control wells.
Step 2. Pre-incubation of inhibitors with kinase: Add 2 μL/well 2× kinase solution. Centrifuge at 1000 rpm for 1 min. Incubate at room temperature for 30 min.
Step 3. Kinase cascade reaction: Add 2 μL/well 2× substrate/ATP solution to initiate kinase reactions. Centrifuge at 1000 rpm for 1 min. Incubate at room temperature for 180 min.
Final concentrations of components in the assay:
Step 4. Quench: Add 2 uL/well ADP Glo Reagent+0.05% CHAPS. Centrifuge at 1000 rpm for 1 min; Incubate at room temperature for one hour.
Step 5. Detection: Add 2 uL/well Kinase Detection Reagent+0.05% CHAPS. Centrifuge at 1000 rpm for 1 min; Incubate at room temperature for 1 hour; Read Luminescence on a plate reader.
as §2
IC50 values are determined from a 4-parameter fit, using the following equation: Y=Bottom+(Top−Bottom)/(1+10^(Log IC50-X)*Hill slope) where X=log10 of the compound concentration; top can be defined by PC; bottom defined by NC.

Chain of His6-TEV-PDGFRβ (557-1016) (P09619 557-1016): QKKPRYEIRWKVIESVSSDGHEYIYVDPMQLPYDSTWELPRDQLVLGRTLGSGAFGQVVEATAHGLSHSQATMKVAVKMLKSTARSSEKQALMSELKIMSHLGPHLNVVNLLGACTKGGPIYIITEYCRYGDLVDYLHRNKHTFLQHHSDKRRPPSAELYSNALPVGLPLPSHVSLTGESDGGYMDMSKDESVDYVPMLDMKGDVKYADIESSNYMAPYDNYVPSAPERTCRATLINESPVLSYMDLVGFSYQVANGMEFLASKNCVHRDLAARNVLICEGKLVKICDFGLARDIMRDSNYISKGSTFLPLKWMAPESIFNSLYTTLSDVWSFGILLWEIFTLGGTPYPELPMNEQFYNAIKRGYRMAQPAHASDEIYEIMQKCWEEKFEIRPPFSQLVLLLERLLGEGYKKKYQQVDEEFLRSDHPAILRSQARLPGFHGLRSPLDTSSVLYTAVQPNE

| SMILES | pIC50 [1] | pIC50 [2] | pIC50 [3] |
| --- | --- | --- | --- |
| Cc1ncc(C(=O)NCCN2CCCC2(C)C)cc1NC(=O)c1cnn2cc(-c3ccc(=O)[nH]c3)sc12 [Example 137, N-(5-((2-(2,2-dimethylpyrrolidin-1-yl)ethyl)carbamoyl)-2-methylpyridin-3-yl)-2-(6-oxo-1,6-dihydropyridin-3-yl)pyrazolo[5,1-b]thiazole-7-carboxamide] | 8.66 | 7.61 | < 5.60 |
| Cc1ncc(C(=O)NCCN2CCCC2(C)C)cc1NC(=O)c1cnn2cc(-c3cccnc3)sc12 [Example 135, N-(5-((2-(2,2-dimethylpyrrolidin-1-yl)ethyl)carbamoyl)-2-methylpyridin-3-yl)-2-(pyridin-3-yl)pyrazolo[5,1-b]thiazole-7-carboxamide] | 8.89 | 7.97 | < 5.12 |
| Cc1ncc(C(=O)NCCN2CCCC2(C)C)cc1NC(=O)c1cnn2cc(-c3ccc(=O)n(C)c3)sc12 [Example 138, N-(5-((2-(2,2-dimethylpyrrolidin-1-yl)ethyl)carbamoyl)-2-methylpyridin-3-yl)-2-(1-methyl-6-oxo-1,6-dihydropyridin-3-yl)pyrazolo[5,1-b]thiazole-7-carboxamide] | 8.43 | 7.40 | < 5.12 |
| Cc1ncc(C(=O)NCCN2CCCC2(C)C)cc1NC(=O)c1cnn2cc(-c3ccc(N)nc3)sc12 [Example 130, 2-(6-aminopyridin-3-yl)-N-(5-((2-(2,2-dimethylpyrrolidin-1-yl)ethyl)carbamoyl)-2-methylpyridin-3-yl)pyrazolo[5,1-b]thiazole-7-carboxamide] | 9.30 | 8.37 | < 5.12 |
| Cc1ncc(C(=O)NCCNC2CCC2)cc1NC(=O)c1cnn2cc(-c3cnn4c3CCC4)sc12 [Example 491, N-(5-((2-(cyclobutylamino)ethyl)carbamoyl)-2-methylpyridin-3-yl)-2-(5,6-dihydro-4H-pyrrolo[1,2-b]pyrazol-3-yl)pyrazolo[5,1-b]thiazole-7-carboxamide] | 9.52 | 8.31 | < 5.12 |
| Cc1ncc(C(=O)NCCN2[C@H](C)CCC[C@@H]2C)cc1NC(=O)c1cnn2cc(-c3cnn(C)c3)sc12 [Example 164] | 8.82 | 8.21 | < 5.12 |
| Cc1ncc(C(=O)NCCN2CC(C)(C)C2)cc1NC(=O)c1cnn2cc(-c3cnn4c3COCC4)sc12 [Example 489, 2-(6,7-dihydro-4H-pyrazolo[5,1-c][1,4]oxazin-3-yl)-N-(5-((2-(3,3-dimethylazetidin-1-yl)ethyl)carbamoyl)-2-methylpyridin-3-yl)pyrazolo[5,1-b]thiazole-7-carboxamide] | 9.30 | 8.26 | < 5.12 |
| Cc1ncc(C(=O)NCCN2CCCC2(C)C)cc1NC(=O)c1cnn2cc(-c3ccnc(N(C)C)c3)sc12 [Example 490, 2-(2-(dimethylamino)pyridin-4-yl)-N-(5-((2-(2,2-dimethylpyrrolidin-1-yl)ethyl)carbamoyl)-2-methylpyridin-3-yl)pyrazolo[5,1-b]thiazole-7-carboxamide] | 9.52 | 8.64 | < 5.12 |
| Cc1ncc(C(=O)NCCN2CCCC2(C)C)cc1NC(=O)c1cnn2cc(-c3ccc(C(=O)O)cc3)sc12 [Example 133, 4-(7-((5-((2-(2,2-dimethylpyrrolidin-1-yl)ethyl)carbamoyl)-2-methylpyridin-3-yl)carbamoyl)pyrazolo[5,1-b]thiazol-2-yl)benzoic acid] | 8.82 | 8.20 | < 5.12 |
| Cc1ncc(NC(=O)CCC2CCCN2C)cc1NC(=O)c1cnn2cc(-c3cnn(C)c3)sc12 (stereo not drawn) [Example 492, 2-(1-methyl-1H-pyrazol-4-yl)-N-(2-methyl-5-(3-(1-methylpyrrolidin-2-yl)propanamido)pyridin-3-yl)pyrazolo[5,1-b]thiazole-7-carboxamide] | 9.15 | 7.82 | < 5.12 |
| Cc1ncc(C(=O)NCCN2CCCC2(C)C)cc1NC(=O)c1cnn2cc(-c3cccc(C(=O)O)c3)sc12 [Example 134, 3-(7-((5-((2-(2,2-dimethylpyrrolidin-1-yl)ethyl)carbamoyl)-2-methylpyridin-3-yl)carbamoyl)pyrazolo[5,1-b]thiazol-2-yl)benzoic acid] | 8.54 | 7.86 | < 5.12 |
| Cc1ccc(-c2cn3ncc(C(=O)Nc4cc(C(=O)NCCN5CCCC5(C)C)cnc4C)c3s2)cn1 [Example 136, N-(5-((2-(2,2-dimethylpyrrolidin-1-yl)ethyl)carbamoyl)-2-methylpyridin-3-yl)-2-(6-methylpyridin-3-yl)pyrazolo[5,1-b]thiazole-7-carboxamide] | 8.85 | 9.00 | < 5.12 |
| Cc1ncc(C(=O)NCCN2CCCC2(C)C)cc1NC(=O)c1cnn2cc(-c3cnn(C)n3)sc12 [Example 131, N-(5-((2-(2,2-dimethylpyrrolidin-1-yl)ethyl)carbamoyl)-2-methylpyridin-3-yl)-2-(2-methyl-2H-1,2,3-triazol-4-yl)pyrazolo[5,1-b]thiazole-7-carboxamide] | 8.77 | 8.04 | < 5.12 |

Source: patent publication US20240109917A1 (ACTELION PHARMACEUTICALS LTD, priority 2020, published 2024)
